The values that follow are results of earlier work, collected in publication PMC11280325, “Design, Synthesis, and Characterization of Novel Thiazolidine-2,4-Dione-Acridine Hybrids as Antitumor Agents” (Molecules, 2024).

The IC50 is the concentration at which inhibition is half-maximal.

Common to all, as to settings: cisplatin reference, 48 h; cited from earlier work
Data set [1] relates to A549.
Data set [2] deals with Hep G2.
In data set [3] the test system is HCT116.
In data set [4] the test system is HeLa.
Data set [5] relates to PATU.
Data set [6] deals with A2058.
Data set [7] concerns Bj-5ta.
Data set [8] relates to MCF-10A.

On to `N.N.[Cl][Pt][Cl]` [Cisplatin], for which the IC50 in data set [1] was 17.3 ± 2.2 µM; in data set [2] it was 14 ± 2.8 µM; in data set [3] it was 14.5 ± 2.5 µM; in data set [4], 30.4 ± 1.4 µM; in data set [5], 20.7 ± 3.1 µM; in data set [6], 18.8 ± 5.5 µM. Besides, the IC50 in data set [7] was 31 ± 0.7 µM; in data set [8] it was 25.9 ± 2.1 µM.
